Data as given in publication PMC7524759, “Solution structure of the Hop TPR2A domain and investigation of target druggability by NMR, biochemical and in silico approaches” (Scientific Reports, 2020).
“Also recorded” adds a separate entry of the source. Like-named read-outs stand apart in the source and are kept apart here.

Assays:
[1] = target: T1, Hop TPR2A-Hsp90 MEEVD interaction (Homo sapiens, UniProt P31948); experiment: LANCE (TR-FRET) proximity assay of Hop TPR2A binding to biotin-Hsp90 MEEVD peptide; conditions: for LE (ligand efficiency): approximated from LANCE IC50 values using number of heavy atoms
T1 construct: The TPR2A domain of human Hop, residues 218-350, was cloned from full-length Hop cDNA; made in house; host or cells: Escherichia coli BL21 (DE3) pLysS
Procedure: Compounds containing succinic acid substructures were therefore selected to mimic the natural carboxylate clamp interaction between the Hsp90 C-terminus and TPR cochaperones. […] In this assay, compounds that block the protein-peptide interaction cause a loss in fluorescent signal.
The labelling reagents used were Surelight APC-SA and LANCE Eu-1024 Anti-6xHis (both PerkinElmer). Assays were performed in black low volume 384-well plates (Corning) with a total volume of 20 μl per well in assay buffer of 20 mM HEPES pH 7.4, 100 mM NaCl, 1 mM DTT, 0.1% Tween-20. […] Compound stocks to be screened were individually corrected to approximately neutral pH due to their highly acidic nature and dispensed using a Labcyte Echo acoustic dispenser.
Raw fluorescence or luminescence values from compound screening were converted to % inhibition of the total assay signal. IC50 values were determined by plotting % inhibition against the log10 of inhibitor concentration and fitted using a variable slope, four-parameter concentration–response curve using a robust fit in GraphPad Prism. […] To generate IC50 values, assays were repeated independently 3 times with duplicate or triplicate wells for each run. […] Ligand efficiency (LE) was approximated from LANCE biochemical IC50 values using the number of heavy atoms (HA)[67].

[2] = target: T2, Hop TPR2A (Homo sapiens, UniProt P31948); experiment: NMR 1H-15N HSQC chemical shift perturbation (CSP) titration; assay type: binding; conditions: for Kd: Mean ± S.D. for 10 fitted residues
T2 construct: The TPR2A domain of human Hop, residues 218-350, was cloned from full-length Hop cDNA; 6xHis (N, cleaved yes); made in house; host or cells: Escherichia coli BL21 (DE3) pLysS
Procedure: Chemical shift perturbation (CSP) experiments were carried out on protein and compound mixtures to characterise protein–ligand interactions. ^1H-^15N HSQC spectra were collected on 200 μl samples in 20 mM Na2HPO4 pH 6.5, 50 mM NaCl, 1 mM DTT with 10% D2O in 3 mm NMR tubes (GPE Scientific). […] Each sample was prepared with 100 μM protein while compound or peptide concentration varied according to the experiment. Where possible, compound or peptide stocks were made up in NMR buffer to minimise buffer effects on the spectra. Compounds were otherwise diluted from DMSO stocks maintaining a maximum final DMSO concentration of 3% v/v. HSQC spectra of the protein with DMSO in the buffer were collected as controls. ^1H–^15N HSQC spectra were collected using standard pulse sequences.
Changes in chemical shifts (∆δ) were calculated for each backbone assigned N–H peak using a weighted CSP[70]. In order to visualise the locations of the largest shifts the ∆δ values were edited into a Hop TPR2A PDB file (in place of B-factors) and represented as surface heat maps in PyMol. Kd values from CSP titrations were calculated from HSQC spectra collected at a series of increasing compound concentrations[58], plots are representative of one titration for several different residues.
Chemical shift perturbation (CSP) experiments and Kd determination
Changes in chemical shifts were determined by tracking ligand shifted HSQC peaks in
NMRView and exporting the resultant peak lists to Excel. In Excel, using appropriate lists of
control peaks the change in chemical shift (Dd) was calculated for each backbone assigned
N-H peak using Equation S1.
(Equation S1) Δδ = %Δ𝛿!! + (0.2Δ𝛿#) -
Where Δ𝛿!! is the change in proton chemical shift, and Δ𝛿# is the change in nitrogen chemical
shift. Using a scaling factor (0.2) normalises the difference in magnitude of chemical shifts at
these two nuclei, various scaling factors are used in the literature and a value of 0.2 has been
To estimate Kd values from CSP titrations HSQC spectra were collected at a series of
increasing compound concentrations, peak lists for each concentration were generated and
exported to Excel. Then using GraphPad Prism the Dd values for each concentration were
fitted by non-linear regression to Equation S2, taken from Fielding 2007 equation 16 (see also
Williamson 2013 equation 6 for the derivation).
(Equation S2) Δ𝛿 = Δ𝛿&’( "[0]
In which Δ𝛿 is the adjusted chemical shift change, Δ𝛿&’( is the chemical shift change at
saturation, [𝑃]7 the total protein concentration, 𝐾8 the equilibrium dissociation constant, and
[𝐿]7the total ligand concentration. Here the Δ𝛿&’( was taken to be the observed Δ𝛿 at the
highest [𝐿]7. Except in cases where this was clearly far from saturation, when this variable
was not constrained during the curve fit.
Determining dissociation constants using CSP titrations requires that the experimental [P] is
high enough that the signal to noise of the experiment is sufficient while falling into a suitable
range for accurate curve fitting using equation S2.

[3] = system: FLAG-tagged Hsp90 complexes (TPR cochaperone association) from HCT116 cells; experiment: FLAG co-immunoprecipitation Western blot of Hsp90 complexes; assay type: biochemical, human
[4] = target: Hsp90 (Homo sapiens); experiment: ITC; conditions: cited from earlier work
[5] = n = 3 independent experiments, duplicate wells, Mean ± S.D.

T2 sequence (P31948 218-350): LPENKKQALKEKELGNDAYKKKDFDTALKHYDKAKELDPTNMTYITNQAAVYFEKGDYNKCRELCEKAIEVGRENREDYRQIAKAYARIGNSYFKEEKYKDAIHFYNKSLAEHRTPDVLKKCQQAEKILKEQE
T1 sequence (P31948 218-350): as above
Chain of Hop TPR2A (from UniProt P31948) (P31948 223-352): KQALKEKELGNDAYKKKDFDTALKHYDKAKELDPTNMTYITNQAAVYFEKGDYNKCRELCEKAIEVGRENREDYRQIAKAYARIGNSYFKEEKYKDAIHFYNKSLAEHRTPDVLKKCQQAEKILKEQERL

Compound | LE (ligand efficiency) [1] | IC50 [1, 5] [µM] | Kd [2] [µM] | other results
O=C(O)CCC(=O)O [Compound 1, succinic acid] | 0.42 | 3960 |  | IC50 [1]: ~4000 µM
O=C(O)/C=C\C(=O)O [Compound 2] | 0.47 | 2170 |  | 
COc1ccc(C2c3[nH]c4ccccc4c3CC3C(=O)N(c4ccccc4C(=O)NC(CC(=O)O)C(=O)O)C(=O)N32)cc1 (stereo not shown) [Compound 7] | 0.13 | 74 ± 3.2 |  | 
COc1cccc(C2c3[nH]c4ccccc4c3CC3C(=O)N(c4ccccc4C(=O)NCC(=O)O)C(=O)N32)c1 (stereo not shown) [Compound 8] | 0.13 | 311 ± 37 |  | 
O=C(O)c1ccccc1N1C(=O)C2Cc3c([nH]c4ccccc34)C(c3ccccc3)N2C1=O (stereo not shown) [Compound 9] | 0.14 | 452 ± 14 | 1410 | 
Cc1ccc(C2c3[nH]c4ccccc4c3CC3C(=O)N(c4ccccc4C(=O)O)C(=O)N32)cc1 (stereo not shown) [Compound 10] | 0.15 | 234 ± 75 | 729 ± 164 | 
Cc1cccc(C2c3[nH]c4ccccc4c3CC3C(=O)N(c4ccccc4C(=O)O)C(=O)N32)c1 (stereo not shown) [Compound 11] | 0.17 | 80 ± 5.8 | 177 ± 13 | CSP ∆δ ([2]; residue Arg305): 0.38 ppm; CSP ∆δ ([2]; residue Asn264): 0.36 ppm; CSP ∆δ ([2]; residue Asn308): 0.12 ppm; CSP ∆δ ([2]; residue Lys301): 0.1 ppm; TPR cochaperone association with Hsp90 complexes ([3]; added to HCT116 cell lysate, N = 1, qualitative): not; TPR cochaperone association with Hsp90 complexes ([3]; added to purified Hsp90 complexes, N = 1, preliminary, qualitative): reduce TPR cochaperone association; also recorded: may disrupt binding of Hop and another TPR cochaperone, PP5
Cc1ccccc1C1c2[nH]c3ccccc3c2CC2C(=O)N(c3ccccc3C(=O)O)C(=O)N21 (stereo not shown) [Compound 12] | 0.17 | 94 ± 6.4 | 352 ± 39 | 
COc1cccc(C2c3[nH]c4ccccc4c3CC3C(=O)N(c4ccc(C(=O)O)cc4)C(=O)N32)c1 (stereo not shown) [Compound 13] | 0.12 | 1180 |  | drop in LANCE activity compared to 11 ([1]; carboxylic acid at R2 moved from ortho to para): more than tenfold drop in activity
Hop TPR2A (from UniProt P31948) |  |  |  | Kd [4]: 11 µM
